Read-outs that look alike come from different tables or passages of the source.
Key:
Pharmacokinetics in mice = format: in vivo; conditions: 75 mg/kg once daily, data not shown
HBCx-3 = format: in vivo; conditions: HBCx-3, Breast, TNBC, Rb present; 125 mg/kg bid × 21
HBCx-15 = format: in vivo; conditions: HBCx-15, Breast, TNBC, Rb absent; 125 mg/kg bid × 21
HBRX1004 = format: in vivo; conditions: HBRX1004, Breast, TNBC, Rb present; 250 mg/kg qd
HBCx-11 = format: in vivo; conditions: HBCx-11, Breast, TNBC, Rb present; 125 mg/kg bid × 21
HCOX1290 = format: in vivo; conditions: HCOX1290, Colorectal, Rb present; 250 mg/kg qd
NB1 = experiment: cells; format: cell-based; conditions: Homo sapiens, NB1, 72 h
MCF-7 [1] = experiment: cells; format: cell-based; conditions: Homo sapiens, MCF7; MCF-7, 72 h
MDA-MB-415 = experiment: cells; format: cell-based; conditions: Homo sapiens, MDA-MB-415, 72 h
BT-483 [2] = experiment: cells; format: cell-based; conditions: Homo sapiens, BT-483, 72 h
SNU-761 [3] = experiment: cells; format: cell-based; conditions: SNU-761, 72 h
MGH049 [4] = experiment: cells; format: cell-based; conditions: MGH049, 72 h
NCI-H1792 = experiment: cells; format: cell-based; conditions: Homo sapiens, NCI-H1792, 72 h
NCI-H1573 = experiment: cells; format: cell-based; conditions: Homo sapiens, NCI-H1573, 72 h
A549 [5] = experiment: cells; format: cell-based; conditions: Homo sapiens, A549, 72 h
PC-14 [6] = experiment: cells; format: cell-based; conditions: Homo sapiens, PC-14, 72 h
NCI-H3255 [7] = experiment: cells; format: cell-based; conditions: Homo sapiens, NCI-H3255, 72 h
OE33 = experiment: cells; format: cell-based; conditions: Homo sapiens, OE33, 72 h
VCAP [8] = experiment: cells; format: cell-based; conditions: Homo sapiens, 72 h
SK-MEL-30 = experiment: cells; format: cell-based; conditions: Homo sapiens, SK-MEL-30, 72 h
A-375 = experiment: cells; format: cell-based; conditions: Homo sapiens, A-375, 72 h
UACC-62 = experiment: cells; format: cell-based; conditions: Homo sapiens, UACC-62, 72 h
KELLY = experiment: cells; format: cell-based; conditions: 72 h
MCF-7 [9] = experiment: cells; format: cell-based; conditions: Homo sapiens, MCF7; MCF-7, 72 h; remark: listed apart in the source
BT-483 [10] = experiment: cells; format: cell-based; conditions: Homo sapiens, BT-483, 72 h; remark: listed apart in the source
SNU-761 [11] = experiment: cells; format: cell-based; conditions: SNU-761, 72 h; remark: listed apart in the source
NCI-H3122 = experiment: cells; format: cell-based; conditions: Homo sapiens, NCI-H3122, 72 h
MGH049 [12] = experiment: cells; format: cell-based; conditions: MGH049, 72 h; remark: listed apart in the source
NCI-H460 = experiment: cells; format: cell-based; conditions: Homo sapiens, NCI-H460, 72 h
A549 [13] = experiment: cells; format: cell-based; conditions: Homo sapiens, A549, 72 h; remark: listed apart in the source
PC-14 [14] = experiment: cells; format: cell-based; conditions: Homo sapiens, PC-14, 72 h; remark: listed apart in the source
NCI-H2228 = experiment: cells; format: cell-based; conditions: Homo sapiens, NCI-H2228, 72 h
NCI-H3255 [15] = experiment: cells; format: cell-based; conditions: Homo sapiens, NCI-H3255, 72 h; remark: listed apart in the source
TE-10 = experiment: cells; format: cell-based; conditions: Homo sapiens, TE-10, 72 h
TE-8 = experiment: cells; format: cell-based; conditions: Homo sapiens, TE-8, 72 h
KYSE450 = experiment: cells; format: cell-based; conditions: Homo sapiens, KYSE-450; KYSE450, 72 h
VCAP [16] = experiment: cells; format: cell-based; conditions: Homo sapiens, 72 h; remark: listed apart in the source
hs944T = experiment: cells; format: cell-based; conditions: 72 h
SK-MEL-2 = experiment: cells; format: cell-based; conditions: Homo sapiens, SK-MEL-2, 72 h
WM-115 = experiment: cells; format: cell-based; conditions: Homo sapiens, WM-115, 72 h
CDK2/cyclin A = conditions: cited from earlier work
CDK5/p25 = conditions: cited from earlier work
CDK9/cyclin T1 = conditions: cited from earlier work
in vivo = conditions: male, rat, po
MCF-7 [17] = experiment: cells; format: cell-based; conditions: Homo sapiens, MCF7; MCF-7, ER+ BC, dominant CDK4; read-out: IC50, mean ± SD

For CN(C)C(=O)c1cc2cnc(Nc3ccc(N4CCNCC4)cn3)nc2n1C1CCCC1 [Ribociclib, 7-cyclopentyl-2-(5-piperazin-1-yl-pyridin-2-ylamino)-7H-pyrrolo[2,3-d]pyrimidine-6-carboxylic acid dimethylamide], the “area under the concentration-time curve” value (Pharmacokinetics in mice) was ~12,500 ng/mL × h, the maximum serum concentration (Pharmacokinetics in mice) was roughly 2700 ng/mL and the T/C (HBCx-3) was 45. For the same compound, the T/C (HBCx-15) was 108, the T/C (HBRX1004) was 10 and the T/C (HBCx-11) was 52. For the same compound, the T/C (HCOX1290) was 22, the IC50 (NB1) was 370 nM and the IC50 (MCF-7 [1]) was 180 nM. It also gave an IC50 (MDA-MB-415) of 980 nM, an IC50 (BT-483 [2]) greater than 10000 nM and an IC50 (SNU-761 [3]) of 670 nM. The IC50 (MGH049 [4]) was 540 nM, the IC50 (NCI-H1792) was 610 nM and the IC50 (NCI-H1573) was 610 nM. For the same compound, the IC50 (A549 [5]) was 1200 nM, the IC50 (PC-14 [6]) was 6980 nM and the IC50 (NCI-H3255 [7]) was greater than 10000 nM. The IC50 (OE33) was 630 nM, the IC50 (VCAP [8]) was greater than 10000 nM and the IC50 (SK-MEL-30) was 1000 nM. The IC50 (A-375) was 2680 nM, the IC50 (UACC-62) was 9700 nM and the IC50 (KELLY) was 300 nM. The IC50 (MCF-7 [9]) was greater than 10000 nM, the IC50 (BT-483 [10]) was greater than 10000 nM and the IC50 (SNU-761 [11]) was greater than 10000 nM. The IC50 (NCI-H3122) was 2000 nM, the IC50 (MGH049 [12]) was greater than 10000 nM and the IC50 (NCI-H460) was greater than 10000 nM. It also gave an IC50 (A549 [13]) greater than 10000 nM, an IC50 (PC-14 [14]) greater than 10000 nM and an IC50 (NCI-H2228) greater than 10000 nM. It also gave an IC50 (NCI-H3255 [15]) greater than 10000 nM, an IC50 (TE-10) greater than 10000 nM and an IC50 (TE-8) greater than 10000 nM. The IC50 (KYSE450) was greater than 10000 nM, the IC50 (VCAP [16]) was greater than 10000 nM and the IC50 (hs944T) was greater than 10000 nM. For the same compound, the IC50 (SK-MEL-2) was greater than 10000 nM, the IC50 (WM-115) was greater than 10000 nM and the “activity against CDK2/cyclin A” value (CDK2/cyclin A) was “far less active”. The “activity against CDK5/p25” value (CDK5/p25) was “far less active”, the “activity against CDK9/cyclin T1” value (CDK9/cyclin T1) was “far less active” and the Cmax (in vivo; 10 mg/kg) was 110 ng/mL. It also gave a Cmax (in vivo; 75 mg/kg) of 1740 ng/mL and a Cmax (in vivo; 150 mg/kg) of 1680 ng/mL.
Compound CC(=O)c1c(C)c2cnc(Nc3ccc(N4CCNCC4)cn3)nc2n(C2CCCC2)c1=O [Palbociclib, reference compound] has an IC50 (MCF-7 [17]) of 30000 ± 18000 nM.

Source: paper PMC6219668 (Oncotarget, 2018)
